2 compounds from US10254283B2, “Biomarker for MELK activity and methods of using same” (Dana-Farber Cancer Institute, Inc., priority 2013, dated 2019) can be followed below.

Entries after “also recorded” stand apart in the source; their conditions may differ.

Assay [1] relates to phosphorylation of eIF4B at S406. Description: Immunoblotting of eIF4B S406 phosphorylation in drug-treated mitotic cells. It is filed as cell-based, human. As to the method:
MDA-MB-468 cells stably expressing tetracycline-inducible (tet-on) small hairpin MELK (shMELK) in the presence or absence of doxycycline were harvested through treatment of nocodazole, and subjected to immunoblotting. […] Mitotic MDA-MB-468 cells were treated for 30 min with vehicle or 200 nM OTSSP167, a MELK inhibitor (Chung et al. (2012) Oncotarget 3:1629-1640). Lysates were used for immunoblotting.
(§1) For treatment with nocodazole, cells were refreshed with medium containing nocodazole (200 ng/ml). Twenty hours after treatment, floating mitotic cells were harvested by gental shake-off. For drug treatment, cells were seeded in multi-well plate, in the presence of OTSSP167 (ChemExpress, HY15512; 10 mM stock made in DMSO).
(§2) Cells were harvested and lysed with RIPA buffer (25 mM Tris, pH 7.4, 150 mM NaCl, 1% Nonidet P-40, 0.5% sodium deoxycholate, and 0.1% sodium dodecyl sulfate) supplemented with protease inhibitors cocktail (Roche) and phosphatase inhibitors cocktail (Thermo Scientific). Cleared lysates were analyzed for protein concentration using a BCA kit (Thermo Scientific). Equal amount of protein (10-20 μg) was resolved on SDS-PAGE, and was subsequently transferred onto a nitrocellulose or polyvinylidene difluoride membrane (Amersham). The membrane was blocked with 5% non-fat milk and was then incubated with primary antibodies overnight at 4° C. After washing, the membrane was incubated with fluorophore-conjugated secondary antibodies for 1 h at room temperature. The membrane was then washed and scanned with an Odyssey® Infrared scanner (Li-Cor Biosciences).
The following antibodies were used for immunoblotting or immunoprecipitation, MELK (Epitomics, 2916), p-eIF4B (S406) (Cell Signaling, 8151), p-eIF4B (S422) (Cell Signaling, 3591), eIF4B (Cell Signaling, 3592), c-Myc (Cell Signaling, 5605), XIAP (Cell Signaling, 2045), p-Akt (S473) (Cell Signaling, 4060), p-MAPK (T202/Y204) (Cell Signaling, 4370), cleaved PARP (Asp214) (Cell Signaling, 9541), Aurora A (Cell Signaling, 4718), Aurora B (Cell Signaling, 3094), p-Aurora A (T288)/Aurora B (T232)/Aurora C (T198) (Cell Signaling, 2914), p-Histone H3 (T3) (Cell Signaling, 13576), p-Histone H3 (S10) (Cell Signaling, 3377), p-Histone H3 (T11) (Cell Signaling, 9767), p-Histone H3 (S28) (Cell Signaling, 9713), ODC (Sigma, O1136), Vinculin (Sigma, V9131, alpha-tubulin (Sigma, T9016), anti-HA magnetic beads (Pierce, 88836), anti-Flag magnetic beads (Sigma, M8823). Secondary antibodies used were Alexa Fluor 680 goat anti-rabbit IgG (Invitrogen A-21109) and IRDye800-conjugated anti-mouse IgG (Rockland).
Background: Immunoblotting shows a protein as a band on a membrane.

Assay [2] concerns the target T1, recombinant MELK (kinase domain) (Homo sapiens, UniProt Q14680).
T1 construct: incubated without or with recombinant MELK (kinase domain) for 30 min. at 30° C
Description: In vitro kinase assay, recombinant MELK (kinase domain) with recombinant Histone H3, immunoblotting. It is filed as biochemical. To be noted: 200 ng/ml final, 30 min at 30° C. (FIG. 12).
Description: Reactions were terminated by adding SDS sample buffer. Samples were subjected to immunoblotting using the indicated antibodies.
Flag-tagged eIF4B or Flag-eIF4B (S406A) was transfected into HEK293T cells (4 μg DNA for cells in one 60 mm dish). Thirty-six hours after transfection, cells were lysed with IP buffer (100 mM NaCl, 50 mM Tris, pH 7.5, 0.5% NP-40, 0.5% Sodium deoxycholate, supplemented with protease/phosphatase inhibitor cocktail). Lysates were cleared via incubating with anti-mouse IgG conjugated to magnetic beads (4° C., 30 min), and then immunoprecipitated with anti-Flag M2 magnetic beads (Sigma) (4° C., 120 min). The beads with bound antigens were washed 5 times with IP buffer. Beads during the last wash were aliquoted into 1.5 ml microcentrifuge tubes. After removal of IP buffer, the beads were washed once with 1× kinase buffer without ATP (5 mM Tris, pH 7.5, 5 mM-βglycerophosphate, 2 mM dithiothreitol, 0.1 mM Na3VO4, 10 mM MgCl2; Cell Signaling). After the wash, 40 μl 1× kinase buffer with 200 mM ATP was added to each tube, followed by 5 ul buffer without or with 500 ng recombinant MELK. The reaction was incubated at 30° C. for 30 min, and terminated by adding 40 ul 2×SDS sample buffer. The samples were then boiled and subjected to immunoblotting. […]

In assay [3] the test system is mitotic phosphorylation of Histone H3. In words: Immunoblotting of mitotic Histone H3 phosphorylation in drug-treated cells. It is filed as cell-based, human. As to the method:
Mitotic cells were harvested through nocodazole-induced cell cycle arrest at prometaphase (200 ng/ml nocodazole, 20 hours). Cells were treated with the small chemical inhibitor of MELK, OTSSP167, for 30 min, at the indicated concentrations. Cell lysates were then prepared for immunoblotting.
as §1
as §2, with “The membrane was then washed and scanned with an Odyssey® Infrared scanner (Li-Cor Biosciences).” left out

Setting [4] is: mitotic cells treated for 30 min, mTOR inhibitors versus MELK inhibitor (FIG. 6).

T1 sequence (Q14680 11-263 limits assumed): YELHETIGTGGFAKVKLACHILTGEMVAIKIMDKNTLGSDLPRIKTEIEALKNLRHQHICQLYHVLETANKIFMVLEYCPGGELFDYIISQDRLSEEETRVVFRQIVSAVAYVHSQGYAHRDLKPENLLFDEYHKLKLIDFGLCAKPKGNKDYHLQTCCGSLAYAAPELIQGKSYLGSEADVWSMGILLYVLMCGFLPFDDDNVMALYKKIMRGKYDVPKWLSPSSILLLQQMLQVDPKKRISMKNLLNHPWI

`CCC(=O)N1CCN(c2ccc(-n3c(=O)ccc4cnc5ccc(-c6cnc7ccccc7c6)cc5c43)cc2C(F)(F)F)CC1` [Torin 1]: the “phosphorylation of eIF4B at S406” value in assay [1] (setting [4]) is given as “not mTOR inhibition”; in assay [1] (mitotic cells treated for 30 min, mTOR inhibitors versus MELK inhibitor (FIG. 6), listed as torins) it was “do not produce the same results”.
`CC(=O)c1cnc2ccc(-c3cc(Cl)c(O)c(Cl)c3)nc2c1N[C@H]1CC[C@H](CN(C)C)CC1` [OTSSP167]: the “phosphorylation of eIF4B at S406” value in assay [1] (mitotic MDA-MB-468 cells, 200 nM, 30 min, vs vehicle (FIG. 5 right panels)) was “impairs the phosphorylation of eIF4B at S406”; in assay [1] (setting [4]) it was “suppressed the phosphorylation of eIF4B at S406”. Besides, in assay [2], the “MELK-induced phosphorylation of Histone H3 at Ser 10 in vitro” value is reported as “suppresses MELK-induced phosphorylation of Histone H3 at Ser 10”. The “phosphorylation of Histone H3 at Thr3/Ser10/Thr11” value in assay [3] (MDA-MB-468 cells (text cites FIG. 12)) is listed as “reduced phosphorylation of Histone H3 at Thr3/Ser10/Thr11”. In assay [3] (nocodazole-arrested mitotic cells, 30 min, indicated concentrations (FIG. 13)), the “mitotic phosphorylation of Histone H3 at Thr-3, Ser-10 and Thr-11” value was “concentration-dependent reduction; also recorded: suppresses the mitotic phosphorylation of Histone H3 at Thr-3, Ser-10 and Thr-11”.
